According to patent US11339130B1 (Blade Therapeutics, Inc., priority 2016, dated 2022):

Key:
Human Calpain 2/NS1 = target: T1, Human Calpain 2/NS1 (Homo sapiens, UniProt P17655); test: Calpain inhibition continuous fluorescence (FRET) assay, Human Calpain 2/NS1; format: biochemical; settings: read-out: Human Calpain 2/NS1 IC50
T1 sequence (P17655 1-700): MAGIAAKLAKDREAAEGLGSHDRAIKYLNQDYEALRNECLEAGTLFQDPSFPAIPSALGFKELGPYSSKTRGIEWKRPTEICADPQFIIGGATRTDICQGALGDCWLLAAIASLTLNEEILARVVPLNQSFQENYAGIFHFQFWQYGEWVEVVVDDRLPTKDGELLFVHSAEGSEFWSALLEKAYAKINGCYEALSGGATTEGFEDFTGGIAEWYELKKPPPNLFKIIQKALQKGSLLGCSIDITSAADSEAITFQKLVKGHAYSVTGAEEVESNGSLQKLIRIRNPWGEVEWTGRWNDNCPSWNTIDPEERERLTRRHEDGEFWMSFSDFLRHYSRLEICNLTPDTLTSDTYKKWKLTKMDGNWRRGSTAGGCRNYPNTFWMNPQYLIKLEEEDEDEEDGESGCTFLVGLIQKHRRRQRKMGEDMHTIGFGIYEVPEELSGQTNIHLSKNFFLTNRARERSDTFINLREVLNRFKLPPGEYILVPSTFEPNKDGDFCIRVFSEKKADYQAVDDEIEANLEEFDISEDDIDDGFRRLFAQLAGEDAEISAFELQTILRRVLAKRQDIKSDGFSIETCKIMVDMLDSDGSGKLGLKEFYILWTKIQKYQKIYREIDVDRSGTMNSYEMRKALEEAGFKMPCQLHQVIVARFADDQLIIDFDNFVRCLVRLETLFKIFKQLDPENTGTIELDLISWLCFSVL
T1 sequence (P04632 1-268 partner): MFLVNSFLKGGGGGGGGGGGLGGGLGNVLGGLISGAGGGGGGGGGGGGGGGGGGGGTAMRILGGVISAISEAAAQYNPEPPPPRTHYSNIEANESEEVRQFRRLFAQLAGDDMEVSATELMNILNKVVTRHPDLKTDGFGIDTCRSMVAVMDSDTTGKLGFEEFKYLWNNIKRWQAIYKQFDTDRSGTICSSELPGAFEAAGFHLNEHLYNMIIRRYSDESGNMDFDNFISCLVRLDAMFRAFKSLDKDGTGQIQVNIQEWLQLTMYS
How it was run: (§1)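 Continuous FRET read (ex 490/em 520 nm, 10 min) of calpain 1, 2 or 9 cleaving an internally quenched 5-FAM peptide, triggered by substrate with CaCl2 after enzyme–inhibitor incubation at ambient 25 °C, pH 7.5 Tris/NaCl/DTT buffer. IC50 from initial rates (1-5 min) via 4-parameter fit.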

[1] = test system: Calpain activity in SH-SY5Y cells; test: SH-SY5Y + AMC fluorescence assay (Suc-LLVY-AMC substrate); format: cell-based; settings: read-out: SH-SY5Y + AMC IC50
[2] = test system: Calpain activity in SH-SY5Y cells (SBDP-150); test: SH-SY5Y Spectrin western blot assay (SBDP-150 breakdown product, A23187-induced); format: cell-based; settings: Homo sapiens; SH-SY5Y cells, A23187-induced SBDP-150, western blot; read-out: SH-SY5Y Spectrin IC50
Human Calpain 1/NS1 = target: T2, Human Calpain 1/NS1 (Homo sapiens, UniProt P07384); test: Calpain inhibition continuous fluorescence (FRET) assay, Human Calpain 1/NS1; format: biochemical; settings: read-out: Human Calpain 1/NS1 IC50
T2 sequence (P07384 1-714): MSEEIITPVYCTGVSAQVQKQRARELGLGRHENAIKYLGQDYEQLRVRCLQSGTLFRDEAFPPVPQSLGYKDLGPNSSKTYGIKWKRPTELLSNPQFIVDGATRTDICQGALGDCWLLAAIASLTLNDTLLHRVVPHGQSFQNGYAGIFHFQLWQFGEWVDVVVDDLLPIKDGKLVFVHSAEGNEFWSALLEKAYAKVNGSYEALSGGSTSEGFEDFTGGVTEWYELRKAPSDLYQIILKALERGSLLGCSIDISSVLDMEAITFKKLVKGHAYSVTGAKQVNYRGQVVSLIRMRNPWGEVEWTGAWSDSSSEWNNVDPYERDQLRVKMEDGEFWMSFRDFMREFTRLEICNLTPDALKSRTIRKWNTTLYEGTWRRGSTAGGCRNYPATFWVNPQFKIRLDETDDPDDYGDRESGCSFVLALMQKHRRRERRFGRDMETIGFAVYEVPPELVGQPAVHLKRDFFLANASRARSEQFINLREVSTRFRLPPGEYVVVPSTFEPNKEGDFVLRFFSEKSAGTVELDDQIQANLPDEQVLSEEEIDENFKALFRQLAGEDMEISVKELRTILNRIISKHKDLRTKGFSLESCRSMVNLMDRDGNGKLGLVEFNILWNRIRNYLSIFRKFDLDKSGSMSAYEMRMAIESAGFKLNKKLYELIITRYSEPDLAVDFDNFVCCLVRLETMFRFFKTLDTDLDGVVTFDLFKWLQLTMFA
T2 sequence (P04632 1-268 partner): T1 sequence (P04632 1-268 partner)
How it was run: as §1

Human Calpain 9/NS1 = target: T3, Human Calpain 9/NS1 (Homo sapiens, UniProt O14815); test: Calpain inhibition continuous fluorescence (FRET) assay, Human Calpain 9/NS1; format: biochemical; settings: read-out: Human Calpain 9/NS1 IC50
T3 sequence (O14815 1-690): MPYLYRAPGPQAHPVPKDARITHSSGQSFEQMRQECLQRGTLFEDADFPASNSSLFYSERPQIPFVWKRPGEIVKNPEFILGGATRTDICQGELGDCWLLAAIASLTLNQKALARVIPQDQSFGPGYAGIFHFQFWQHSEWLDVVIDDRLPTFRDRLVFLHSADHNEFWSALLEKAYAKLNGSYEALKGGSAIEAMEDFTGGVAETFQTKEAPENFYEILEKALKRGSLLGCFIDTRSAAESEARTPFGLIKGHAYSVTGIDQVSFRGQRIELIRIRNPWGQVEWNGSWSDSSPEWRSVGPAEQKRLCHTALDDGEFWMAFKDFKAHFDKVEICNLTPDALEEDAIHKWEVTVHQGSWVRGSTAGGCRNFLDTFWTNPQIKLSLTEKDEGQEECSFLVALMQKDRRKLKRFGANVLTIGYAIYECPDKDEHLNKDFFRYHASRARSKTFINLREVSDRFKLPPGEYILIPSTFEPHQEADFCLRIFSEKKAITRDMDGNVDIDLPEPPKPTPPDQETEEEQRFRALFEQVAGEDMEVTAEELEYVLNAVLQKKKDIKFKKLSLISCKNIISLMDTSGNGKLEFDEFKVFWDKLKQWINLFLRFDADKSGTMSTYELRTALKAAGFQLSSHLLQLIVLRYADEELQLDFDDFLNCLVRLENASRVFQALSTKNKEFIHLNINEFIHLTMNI
T3 sequence (P04632 1-268 partner): T1 sequence (P04632 1-268 partner)
How it was run: as §1

| IC50 (Human Calpain 2/NS1) | IC50 [1] | IC50 [2] | IC50 (Human Calpain 1/NS1) | IC50 (Human Calpain 9/NS1) | Compound |
| --- | --- | --- | --- | --- | --- |
| < 3 µM | > 25 µM | > 25 µM | < 3 µM | < 3 µM | COc1cncc(-c2nn(C)cc2C(=O)NC(Cc2ccccc2)C(=O)C(N)=O)c1 (stereo not drawn) [Compound 515, N-(4-amino-3,4-dioxo-1-phenylbutan-2-yl)-3-(5-methoxypyridin-3-yl)-1-methyl-1H-pyrazole-4-carboxamide] |
| < 3 µM | < 10 µM | 10 to 25 µM | < 3 µM | < 3 µM | Cn1cc(C(=O)NC(Cc2ccccc2)C(=O)C(N)=O)c(-c2cc(F)ccc2F)n1 (stereo not drawn) [Compound 518, N-(4-amino-3,4-dioxo-1-phenylbutan-2-yl)-3-(2,5-difluorophenyl)-1-methyl-1H-pyrazole-4-carboxamide] |
| < 3 µM | 10 to 25 µM | > 25 µM | < 3 µM | < 3 µM | Cn1cc(C(=O)NC(C=O)Cc2ccccc2)c(-c2ccccc2F)n1 (stereo not drawn) [Compound 520, 3-(2-Fluorophenyl)-1-methyl-N-(1-oxo-3-phenylpropan-2-yl)-1H-pyrazole-4-carboxamide] |
| < 3 µM | < 10 µM | > 25 µM | < 3 µM | < 3 µM | Cc1ccncc1-c1nn(C(F)F)cc1C(=O)NC(Cc1ccccc1)C(=O)C(N)=O (stereo not drawn) [Compound 522, N-(4-amino-3,4-dioxo-1-phenylbutan-2-yl)-1-(difluoromethyl)-3-(4-methylpyridin-3-yl)-1H-pyrazole-4-carboxamide] |
| < 3 µM | < 10 µM | > 25 µM | < 3 µM | < 3 µM | NC(=O)C(=O)C(Cc1ccccc1)NC(=O)c1cn(C2CCCC2)nc1-c1ccccc1 (stereo not drawn) [Compound 525, N-(4-amino-3,4-dioxo-1-phenylbutan-2-yl)-1-cyclopentyl-3-phenyl-1H-pyrazole-4-carboxamide] |
| < 3 µM | < 10 µM | > 25 µM | < 3 µM | < 3 µM | NC(=O)C(=O)C(Cc1ccccc1)NC(=O)c1cn(-c2ccc(F)cc2)nc1-c1ccccc1 (stereo not drawn) [Compound 529, N-(4-amino-3,4-dioxo-1-phenylbutan-2-yl)-1-(4-fluorophenyl)-3-phenyl-1H-pyrazole-4-carb oxamide] |
| < 3 µM | < 10 µM | < 10 µM | < 3 µM | < 3 µM | NC(=O)C(=O)C(Cc1c[nH]c2ccccc12)NC(=O)c1nsnc1-c1ccccc1 (stereo not drawn) [Compound 532, N-(4-amino-1-(1H-indol-3-yl)-3,4-dioxobutan-2-yl)-4-phenyl-1,2,5-thiadiazole-3-carboxamide] |

The remaining lines, values behind:

| Compound | IC50 (Human Calpain 2/NS1) | IC50 [1] | IC50 [2] | IC50 (Human Calpain 1/NS1) | IC50 (Human Calpain 9/NS1) |
| --- | --- | --- | --- | --- | --- |
| Cc1cccc(-c2nn(C)cc2C(=O)NC(Cc2ccccc2)C(=O)C(N)=O)c1F (stereo not drawn) [Compound 517, N-(4-amino-3,4-dioxo-1-phenylbutan-2-yl)-3-(2-fluoro-3-methylphenyl)-1-methyl-1H-pyrazole-4-carboxamide] | < 3 µM | 10 to 25 µM | 10 to 25 µM | < 3 µM | < 3 µM |
| Cc1ccc(C)c(-c2nn(C(F)F)cc2C(=O)NC(Cc2ccccc2)C(=O)C(N)=O)c1 (stereo not drawn) [Compound 524, N-(4-amino-3,4-dioxo-1-phenylbutan-2-yl)-1-(difluoromethyl)-3-(2,5-dimethylphenyl)-1H-pyrazole-4-carboxamide] | < 3 µM | < 10 µM | 10 to 25 µM | < 3 µM | < 3 µM |
| NC(=O)C(=O)C(Cc1ccccc1)NC(=O)c1cn(C2CCC2)nc1-c1ccccc1 (stereo not drawn) [Compound 526, N-(4-amino-3,4-dioxo-1-phenylbutan-2-yl)-1-cyclobutyl-3-phenyl-1H-pyrazole-4-carboxamide] | < 3 µM | < 10 µM | > 25 µM | < 3 µM | < 3 µM |
| NC(=O)C(=O)C(Cc1ccccc1)NC(=O)c1cn(-c2ccccc2F)nc1-c1ccccc1 (stereo not drawn) [Compound 527, N-(4-amino-3,4-dioxo-1-phenylbutan-2-yl)-1-(2-fluorophenyl)-3-phenyl-1H-pyrazole-4-carb oxamide] | < 3 µM | < 10 µM | > 25 µM | < 3 µM | < 3 µM |
| Cn1cc(C(=O)NC(Cc2ccccc2)C(=O)C(N)=O)c(-n2ncc3ccccc32)n1 (stereo not drawn) [Compound 530, N-(4-amino-3,4-dioxo-1-phenylbutan-2-yl)-3-(1H-indazol-1-yl)-1-methyl-1H-pyrazole-4-carboxamide] | < 3 µM | > 25 µM | > 25 µM | < 3 µM | < 3 µM |
| NC(=O)C(=O)C(Cc1ccccc1)NC(=O)c1cnoc1-c1ccccc1 (stereo not drawn) [Compound 531, N-(4-amino-3,4-dioxo-1-phenylbutan-2-yl)-5-phenylisoxazole-4-carboxamide] | < 3 µM | > 25 µM | 10 to 25 µM | < 3 µM | < 3 µM |
| NC(=O)C(=O)C(Cc1ccccc1)NC(=O)c1cn(C(F)F)nc1-c1cccc2c1OC(F)(F)O2 (stereo not drawn) [Compound 546, N-(4-amino-3,4-dioxo-1-phenylbutan-2-yl)-3-(2,2-difluorobenzo[d][1,3]dioxol-4-yl)-1-(difluoromethyl)-1H-pyrazole-4-carboxamide] | < 3 µM | < 10 µM | < 10 µM | < 3 µM | < 3 µM |
| NC(=O)C(=O)C(Cc1ccccc1)NC(=O)c1cn(C(F)F)nc1-c1cccc2ccccc12 (stereo not drawn) [Compound 547, N-(4-amino-3,4-dioxo-1-phenylbutan-2-yl)-1-(difluoromethyl)-3-(naphthalen-1-yl)-1H-pyrazole-4-carboxamide] | < 3 µM | < 10 µM | < 10 µM | < 3 µM | < 3 µM |
